Laboratory results: patent US12692249B2, “WDR5 inhibitors and modulators” (Vanderbilt University, priority 2019, dated 2026)
Where two headings read alike, the source gives them in different places.

Legend:
WDR5 = WDR5 (Homo sapiens, UniProt P61964); assay: TR-FRET competition binding assay, displacement of 10mer-Thr-FAM MLL peptide probe from His-tagged WDR5; conditions: WDR5-His tag (residues 24-334) 2 nM; 10mer-Thr-FAM 150 nM; 60 min, room temperature; read-out: Ki for Inhibition of WDR5 by TR-FRET assay
[1] = system: MV4:11 human cancer cell lines; assay: Cellular viability / anti-proliferative assay, CellTiter-Glo, 5 day protocol; type: cell-based; conditions: read-out: GI50 on cellular proliferation of MV4:11 human cancer cell lines
In short: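 MV-4-11 cells in IMDM with 10% FBS, 200 cells/well, exposed 5 days to 22 two-fold dilutions from 30 μM, final DMSO 0.3%. Viability read by CellTiter-Glo luminescence; GI50 from sigmoidal dose-response fit, mean of at least two replicates.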

[2] = Homo sapiens, MV4-11, 120 h, MV4:11 cells, 5 day incubation, CellTiter-Glo, mean of at least two replicates

Row | Compound | Ki (WDR5) | GI50 [1, 2] | GI50 ([1]; Homo sapiens, MV4-11, 120 h) | GI50 ([1]; MV4:11 cells, 5 day incubation, CellTiter-Glo, mean of at least two replicates)
1 | COc1cc(C)c2nccc(N3CCc4c(cc(Cn5ccnc5C)cc4-c4cn(C)nc4C(F)(F)F)C3=O)c2c1 [Example 7, 2-(6-Methoxy-8-methylquinolin-4-yl)-7-((2-methyl-1H-imidazol-1-yl)methyl)-5-(1-methyl-3-(trifluoromethyl)-1H-pyrazol-4-yl)-3,4-dihydroisoquinolin-1(2H)-one] | 0.026 nM | 29 nM | – | –
2 | CCc1cc(-c2cnn(C)c2)c2nccc(N3CCc4c(cc(Cn5ccnc5)cc4-c4cn(C)nc4C(F)(F)F)C3=O)c2c1 [Example 232, 7-((1H-Imidazol-1-yl)methyl)-2-(6-ethyl-8-(1-methyl-1H-pyrazol-4-yl)quinolin-4-yl)-5-(1-methyl-3-(trifluoromethyl)-1H-pyrazol-4-yl)-3,4-dihydroisoquinolin-1(2H)-one] | < 0.02 nM | 38 nM | – | –
3 | COc1cc(N2CCN(C)CC2)c2cncc(N3CCc4c(cc(Cn5ccnc5)cc4-c4cn(C)nc4C(F)(F)F)C3=O)c2c1 [Example 123, 7-((1H-Imidazol-1-yl)methyl)-6′-methoxy-5-(1-methyl-3-(trifluoromethyl)-1H-pyrazol-4-yl)-8′-(4-methylpiperazin-1-yl)-3,4-dihydro-1H-[2,4′-biisoquinolin]-1-one] | 0.04 nM | < 20 nM | – | –
4 | CCc1cc(N2CCN(C)CC2)c2nc(C)cc(N3CCc4c(cc(Cn5ccnc5)cc4-c4cn(C)nc4C(F)(F)F)C3=O)c2c1 [Example 110, 7-((1H-imidazol-1-yl)methyl)-2-(6-ethyl-2-methyl-8-(4-methylpiperazin-1-yl)quinolin-4-yl)-5-(1-methyl-3-(trifluoromethyl)-1H-pyrazol-4-yl)-3,4-dihydroisoquinolin-1(2H)-one] | 0.021 nM | < 20 nM | – | –
5 | CCn1cc(-c2cc(Cn3ccnc3)cc3c2CCN([C@H]2CCOc4ccc(OC)cc42)C3=O)c(C(F)(F)F)n1 [Example 75, (S)-7-((1H-Imidazol-1-yl)methyl)-5-(1-ethyl-3-(trifluoromethyl)-1H-pyrazol-4-yl)-2-(6-methoxychroman-4-yl)-3,4-dihydroisoquinolin-1(2H)-one] | < 0.02 nM | 23 nM | – | –
6 | Cc1ccc2cncc(N3CCc4c(cc(Cn5ccnc5C)cc4-c4cn(C)nc4C(F)(F)F)C3=O)c2c1 [Example 10, 6′-Methyl-7-((2-methyl-1H-imidazol-1-yl)methyl)-5-(1-methyl-3-(trifluoromethyl)-1H-pyrazol-4-yl)-3,4-dihydro-1H-[2,4′-biisoquinolin]-1-one] | 0.029 nM | < 20 nM | – | –
7 | COc1cnc2cccc(N3CCc4c(cc(Cn5ccnc5C)cc4-c4cn(C)nc4C(F)(F)F)C3=O)c2c1 [Example 3, 2-(3-Methoxyquinolin-5-yl)-7-((2-methyl-1H-imidazol-1-yl)methyl)-5-(1-methyl-3-(trifluoromethyl)-1H-pyrazol-4-yl)-3,4-dihydroisoquinolin-1(2H)-one] | < 0.02 nM | 20 nM | – | –
8 | CCc1cc(-c2cncnc2)c2nccc(N3CCc4c(cc(Cn5ccnc5)cc4-c4cn(C)nc4C(F)(F)F)C3=O)c2c1 [Example 96, 7-((1H-Imidazol-1-yl)methyl)-2-(6-ethyl-8-(pyrimidin-5-yl)quinolin-4-yl)-5-(1-methyl-3-(trifluoromethyl)-1H-pyrazol-4-yl)-3,4-dihydroisoquinolin-1(2H)-one] | < 0.02 nM | < 20 nM | – | –
9 | COc1ccc(N2CCc3c(cc(Cn4ccnc4)cc3-c3cn(C)nc3C(F)(F)F)C2=O)c2cc(C)cnc12 [Example 23, 7-((1H-Imidazol-1-yl)methyl)-2-(8-methoxy-3-methylquinolin-5-yl)-5-(1-methyl-3-(trifluoromethyl)-1H-pyrazol-4-yl)-3,4-dihydroisoquinolin-1(2H)-one] | < 0.02 nM | 210 nM | – | –
10 | COc1cc(C(=O)Nc2ncco2)c2nc(C)cc(N3CCc4c(cc(Cn5ccnc5)cc4-c4cn(C)nc4C(F)(F)F)C3=O)c2c1 [Example 200, 4-(7-((1H-Imidazol-1-yl)methyl)-5-(1-methyl-3-(trifluoromethyl)-1H-pyrazol-4-yl)-1-oxo-3,4-dihydroisoquinolin-2(1H)-yl)-6-methoxy-2-methyl-N-(oxazol-2-yl)quinoline-8-carboxamide] | < 0.02 nM | 28 nM | – | –
11 | COc1cc(OC)c2nccc(N3CCc4c(cc(Cn5ccnc5)cc4-c4cn(C)nc4C(F)(F)F)C3=O)c2c1 [Example 17, 7-((1H-Imidazol-1-yl)methyl)-2-(6,8-dimethoxyquinolin-4-yl)-5-(1-methyl-3-(trifluoromethyl)-1H-pyrazol-4-yl)-3,4-dihydroisoquinolin-1(2H)-one] | 0.025 nM | < 20 nM | – | –
12 | COc1cc(N2CCC(OC)CC2)c2nc(C)cc(N3CCc4c(cc(Cn5ccnc5)cc4-c4cn(C)nc4C(F)(F)F)C3=O)c2c1 [Example 195, 7-((1H-Imidazol-1-yl)methyl)-2-(6-methoxy-8-(4-methoxypiperidin-1-yl)-2-methylquinolin-4-yl)-5-(1-methyl-3-(trifluoromethyl)-1H-pyrazol-4-yl)-3,4-dihydroisoquinolin-1(2H)-one] | < 0.02 nM | < 20 nM | – | –
13 | CCc1cc(C(=O)NCCNC(C)=O)c2nccc(N3CCc4c(cc(Cn5ccnc5)cc4-c4cn(C)nc4C(F)(F)F)C3=O)c2c1 [Example 212, 4-(7-((1H-Imidazol-1-yl)methyl)-5-(1-methyl-3-(trifluoromethyl)-1H-pyrazol-4-yl)-1-oxo-3,4-dihydroisoquinolin-2(1H)-yl)-N-(2-acetamidoethyl)-6-ethylquinoline-8-carboxamide] | < 0.02 nM | 35 nM | – | –
14 | CCn1cc(-c2cc(Cn3ccnc3C)cc3c2CCN([C@H]2CCOc4ccc(OC)cc42)C3=O)c(C(F)(F)F)n1 [Example 74, (S)-5-(1-Ethyl-3-(trifluoromethyl)-1H-pyrazol-4-yl)-2-(6-methoxychroman-4-yl)-7-((2-methyl-1H-imidazol-1-yl)methyl)-3,4-dihydroisoquinolin-1(2H)-one] | < 0.02 nM | – | 20 nM | –
15 | CCc1cc(OC)c2nc(C)cc(N3CCc4c(cc(Cn5ccnc5)cc4-c4cn(C)nc4C(F)(F)F)C3=O)c2c1 [Example 120, 7-((1H-Imidazol-1-yl)methyl)-2-(6-ethyl-8-methoxy-2-methylquinolin-4-yl)-5-(1-methyl-3-(trifluoromethyl)-1H-pyrazol-4-yl)-3,4-dihydroisoquinolin-1(2H)-one] | 0.023 nM | < 20 nM | – | –
16 | CCc1cc(CNC(C)=O)c2nccc(N3CCc4c(cc(Cn5ccnc5)cc4-c4cn(C)nc4C(F)(F)F)C3=O)c2c1 [Example 240, N-((4-(7-((1H-Imidazol-yl)methyl)-5-(1-methyl-3-(trifluoromethyl)-1H-pyrazol-4-yl)-1-oxo-3,4-dihydroisoquinolin-2(1H)-yl)-6-ethylquinolin-8-yl)methyl)acetamide] | < 0.02 nM | 23 nM | – | –
17 | Cc1ccc2cncc(N3CCc4c(cc(Cc5cnc[nH]5)cc4-c4cn(C)nc4C(F)(F)F)C3=O)c2c1 [Example 55, 7-((1H-imidazol-5-yl)methyl)-6′-methyl-5-(1-methyl-3-(trifluoromethyl)-1H-pyrazol-4-yl)-3,4-dihydro-1H-[2,4′-biisoquinolin]-1-one] | < 0.02 nM | 59 nM | – | –
18 | CCc1cc(CN(C)C(C)=O)c2nccc(N3CCc4c(cc(Cn5ccnc5)cc4-c4cn(C)nc4C(F)(F)F)C3=O)c2c1 [Example 238] | < 0.02 nM | 30 nM | – | –
19 | CCc1cc(C(=O)NC2CN(C(=O)c3cscn3)C2)c2nccc(N3CCc4c(cc(Cn5ccnc5)cc4-c4cn(C)nc4C(F)(F)F)C3=O)c2c1 [Example 228, 4-(7-((1H-Imidazol-1-yl)methyl)-5-(1-methyl-3-(trifluoromethyl)-1H-pyrazol-4-yl)-1-oxo-3,4-dihydroisoquinolin-2(1H)-yl)-6-ethyl-N-(1-(thiazole-4-carbonyl)azetidin-3-yl)quinoline-8-carboxamide] | < 0.02 nM | < 20 nM | – | –
20 | CCn1cc(-c2cc(Cn3ccnc3C)cc3c2CCN(c2cccc4ncc(OC)cc24)C3=O)c(C(F)(F)F)n1 [Example 50, 5-(1-Ethyl-3-(trifluoromethyl)-1H-pyrazol-4-yl)-2-(3-methoxyquinolin-5-yl)-7-((2-methyl-1H-imidazol-1-yl)methyl)-3,4-dihydroisoquinolin-1(2H)-one] | < 0.02 nM | 22 nM | – | –
21 | CCc1cc(C(=O)NC2CC2)c2nccc(N3CCc4c(cc(Cn5ccnc5)cc4-c4cn(C)nc4C(F)(F)F)C3=O)c2c1 [Example 172, 4-(7-((1H-Imidazol-1-yl)methyl)-5-(1-methyl-3-(trifluoromethyl)-1H-pyrazol-4-yl)-1-oxo-3,4-dihydroisoquinolin-2(1H)-yl)-N-cyclopropyl-6-ethylquinoline-8-carboxamide] | < 0.02 nM | < 20 nM | – | –
22 | Cc1ccc2cncc(N3CCc4c(cc(Cc5ccncc5)cc4-c4cn(C)nc4C(F)(F)F)C3=O)c2c1 [Example 59, 6′-Methyl-5-(1-methyl-3-(trifluoromethyl)-1H-pyrazol-4-yl)-7-(pyridin-4-ylmethyl)-3,4-dihydro-1H-[2,4′-biisoquinolin]-1-one] | 1.4 nM | 4380 nM | – | –
23 | COCc1cc(OC)cc2c(N3CCc4c(cc(Cn5ccnc5)cc4-c4cn(C)nc4C(F)(F)F)C3=O)ccnc12 [Example 150, 7-((1H-Imidazol-1-yl)methyl)-2-(6-methoxy-8-(methoxymethyl)quinolin-4-yl)-5-(1-methyl-3-(trifluoromethyl)-1H-pyrazol-4-yl)-3,4-dihydroisoquinolin-1(2H)-one] | 0.025 nM | – | – | 27 nM
